Key:
Format in all cases: cell-based, human
[1] = tested on: MCF-7 cells; test: Synergy viability assay, MCF-7; details: with VE-821 (1.25-20 uM each)
From the text: (§1) In ARID1A-deficient tumors, ATR inhibition is thought to trigger premature mitotic entry and chromosome instability that cannot be resolved, resulting in mitotic catastrophe^27. […] We sought to assess whether generic BAF inhibition might sensitize a host of cancers to ATR inhibition. We tested the efficacy of BAFi and ATRi on nine additional human cancer cell lines including seven Breast cancer cell lines (HCC1143, HCC1954, HCC1187, MDAMB-468, MDA-MB-436, Cal-51, MCF-7) and two renal clear cell carcinoma cell lines (A-704, and ACHN). Cal-51 and MCF-7 are both considered aggressive, highly mutated breast cancer cell lines with numerous COSMIC Census gene mutations (FIG. 10). HCC1143 and MDA-MB-468 are sporadic basal-likecancers, HCC1187 is a triple-negative breast cancer, and HCC1954 and MDA-MB-436 are BRCA1 mutant breast cancers which harbor single driver mutations. To assess synergy, each cell line was treated with 5 doses of VE-821 (1.25 uM-20 uM) and 5 doses of Baficillin1 (1.25 uM-20 uM), both independently and with all possible combinations. Like HCT-116 cells, Baficillin1 sensitized MCF-7 and Cal-51 cells lines to treatment with VE-821 (FIG. 6a).
(§2) Viability assays were performed in 384-well plates. Cells were plated at 500 cells/well. […] After 5 days, cellular viability was measured using CellTitre blue, as described by the manufacturer.

[2] = tested on: HCT116 ARID1A(+/+) cells; test: Cell cycle analysis after double thymidine block synchronization
Method: To investigate this, we synchronized cells in the early G1/S phase and then tracked their progression through the cell cycle upon release into media containing BAFi. To assess the full cell cycle, time points were collected beginning at early G0/G1 of the second cycle following release from thymidine block. […] This is consistent with our observation that BAFi independently has minimal toxicity or effects on proliferation. […] Further, we observe that when BAFi cells are treated with VE-821, their decreased entry and slowed progression through S Phase results in an inability to successfully complete their transition through the cell cycle, akin to knockout of ARID1A. […]
For hour-by-hour analysis, cells were collected, rinsed with PBS, and vortexed while adding 1mL ice cold 70% ethanol. […] Individual cells were gated based on forward and side scatter, auto fluorescent cells were omitted, and remaining cells were then analyzed for propidium iodide levels. To determine the percent of cells in each phase, DNA content histograms histograms were analyzed using R-package “mixtools” EM algorithm for mixtures of univariate normals. The areas of each mixed normal distribution were calculated to represent the total number of cells in each phase of the cell cycle. […] ESCs were incubated with BrdU for 1 h and the percent of cells in G2/M, stained with 7-AAD and analyzed on a BD FACScan.

[3] = tested on: MDA-MB-436 cells; test: Synergy viability assay, MDA-MB-436
From the text: as §1, §2

[4] = tested on: A-704 renal clear cell carcinoma cell line; test: Synergy viability assay, A-704; details: with VE-821, PBRM1 mutant line
From the text: as §1, §2

[5] = tested on: Cal-51 cells; test: Synergy viability assay, Cal-51; details: with VE-821 (1.25-20 uM each)
From the text: as §1, §2

## CO[C@H]1CN(C)C(=O)c2cc(NC(=O)NC(C)C)ccc2OC[C@H](C)N(Cc2ccc(-c3ccccn3)cc2)C[C@@H]1C [Baficillin1]
[1]
  combination index (CI MCF-7): 0.45±0.04
[2]; 10 uM Baficillin1 in combination with ATRi (VE-821 10 uM)
  S/G2 crossover time: ~7.5 h
[2]; Baficillin1 10 uM alone
  cell cycle rate: ~11 hr per cycle
[3]; single agent, BRCA1 mutant line
  sensitivity to Baficillin1 independently: significantly more sensitive
[3]; with VE-821
  combinatorial effects of BAFi/ATRi: strictly additive
[4]
  combinatorial effects of BAFi/ATRi: antagonism
[5]
  combination index (CI Cal-51): 0.57±0.09

Reference: patent US11267809B2, “BAF complex modulating compounds and methods of using the same” (THE BOARD OF TRUSTEES OF THE LELAND STANFORD JUNIOR …, priority 2017, dated 2022)
